Reference: patent US20180119123A1, “CRISPR/CAS-RELATED METHODS AND COMPOSITIONS FOR TREATING HIV INFECTION AND AIDS” (EDITAS MEDICINE, INC., priority 2015, published 2018)

Experiments:
[1] = system: human mobilized peripheral blood CD34^+ HSCs; assay: Viability by 7-AAD / Annexin-V flow cytometry 96 hours after Nucleofection; type: cell-based; settings: Nucleofected with Cas9 and CCR5 gRNA plasmids after pre-treatment with UM171; 96 hours
Description: (§1) Human CD34^+ HSCs cells from mobilized peripheral blood (AllCells) were thawed into StemSpan Serum-Free Expansion Medium (SFEM™, StemCell Technologies) containing 100 ng/mL each of the following cytokines: human stem cell factor (SCF), thrombopoietin (TPO), and flt-3 ligand (FL) (all from Peprotech). Cells were grown for 3 days in a humidified incubator and 5% CO2 20% O2. […] The published use of UM171 involved prolonged exposure of HSCs to the small molecule for ex vivo expansion of HSCs. In the current experiment, HSCs were exposed to UM171 for 2 hours before and 24 hours after delivery of Cas9 and gRNA plasmid DNA. This UM171 treatment protocol was based on pilot studies performed by the inventors that indicated acute pre-treatment with UM171 before lentivirus vector mediated gene delivery improved HSC viability compared to HSCs treated with vehicle (dimethylsulfoxide, DMSO, Sigma) alone. […] At 96 hours after Nucleofection™, CD34^+ cells were counted for by trypan blue exclusion and divided into 3 portions for the following analyses: a) flow cytometry analysis for assessment of viability by co-staining with 7-Aminoactinomycin-D (7-AAD) and allophycocyanin (APC)-conjugated Annexin-V antibody (ebioscience); b) flow cytometry analysis for maintenance of HSC phenotype (after co-staining with phycoerythrin (PE)-conjugated anti-human CD34 antibody and fluorescein isothicyanate (FITC)-conjugated anti-human CD90, both from BD Bioscience; c) hematopoietic colony forming cell (CFC) analysis by plating 1500 cells in semi-solid methylcellulose based Methocult medium (StemCell Technologies) that supports differentiation of erythroid and myeloid blood cell colonies from HSCs and serves as a surrogate assay to evaluate HSC multipotency and differentiation potential ex vivo; d) genomic DNA analysis for detection of editing at the CCR5 locus. […]

[2] = system: CD34^+ HSCs; assay: Hematopoietic colony forming cell (CFC) assay in Methocult medium; type: cell-based, human; settings: Nucleofection with wild-type Cas9 and CCR5-U43 gRNA plasmid DNA + vehicle (no UM171); two weeks
Description: Human CD34^+ HSCs cells from mobilized peripheral blood (AllCells) were thawed into StemSpan Serum-Free Expansion Medium (SFEM™, StemCell Technologies) containing 100 ng/mL each of the following cytokines: human stem cell factor (SCF), thrombopoietin (TPO), and flt-3 ligand (FL) (all from Peprotech). Cells were grown for 3 days in a humidified incubator and 5% CO2 20% O2. […] The published use of UM171 involved prolonged exposure of HSCs to the small molecule for ex vivo expansion of HSCs. In the current experiment, HSCs were exposed to UM171 for 2 hours before and 24 hours after delivery of Cas9 and gRNA plasmid DNA. This UM171 treatment protocol was based on pilot studies performed by the inventors that indicated acute pre-treatment with UM171 before lentivirus vector mediated gene delivery improved HSC viability compared to HSCs treated with vehicle (dimethylsulfoxide, DMSO, Sigma) alone. After the 2-hour pretreatment with UM171, 1 million […] HSCs were Nucleofected™ with the Amaxa™ 4D Nucleofector™ device (Lonza), Program EO100 using components of the P3 Primary Cell 4D-Nucleofector Kit™ (Lonza) according to the manufacturer's instructions. Briefly, one million cells were suspended in Nucleofector™ solution and the following amounts of plasmid DNA were added to the cell suspension: 1250 ng plasmid expressing CCR5 gRNA (CCR5-U43) from the human U6 promoter and 3750 ng plasmid expressing wild-type S. pyogenes Cas 9 transcriptionally regulated by the CMV promoter. After Nucleofection™, cells were plated into Stemspan-SFEM™ supplemented with SCF, TPO, FL and 40 nM UM171. After overnight incubation, HSCs were plated in Stemspan-SFEM™ plus cytokines without UM171. At 96 hours after Nucleofection™, CD34^+ cells were counted for by trypan blue exclusion and divided into 3 portions for the following analyses: a) flow cytometry analysis for assessment of viability by co-staining with 7-Aminoactinomycin-D (7-AAD) and allophycocyanin (APC)-conjugated Annexin-V antibody (ebioscience); b) flow cytometry analysis for maintenance of HSC phenotype (after co-staining with phycoerythrin (PE)-conjugated anti-human CD34 antibody and fluorescein isothicyanate (FITC)-conjugated anti-human CD90, both from BD Bioscience; c) hematopoietic colony forming cell (CFC) analysis by plating 1500 cells in semi-solid methylcellulose based Methocult medium (StemCell Technologies) that supports differentiation of erythroid and myeloid blood cell colonies from HSCs and serves as a surrogate assay to evaluate HSC multipotency and differentiation potential ex vivo; d) genomic DNA analysis for detection of editing at the CCR5 locus. Genomic DNA was extracted from HSCs 96 hours after Nucleofection™, and CCR5 locus-specific PCR reactions were performed.
To evaluate maintenance of HSC potency and differentiation potential, two weeks after plating CD34^+ HSCs in CFC assays, hematopoietic activity was quantified based on scoring the HSC progeny by enumerating the total number of hematopoietic colony forming units (CFU) and the frequencies of specific blood cell phenotypes, including: mixed myeloid/erythroid (Granulocyte-erythroid-monocyte macrophage, CFU-GEMM), myeloid (CFU-macrophage (M), granulocyte-macrophage (CFU-GM)) and erythroid (CFU-E) colonies. CD34^+ HSCs that were Nucleofected™ after UM171 pre-treatment maintained CFC potential compared to un-Nucleofected™ HSCs (Table 12). In contrast, CD34^+ HSCs that were Nucleofected™ without UM171 pre-treatment had reduced CFC potential (lower total CFC counts and reduced numbers of mixed-phenotype colonies (CFU-GEMM) and erythroid colonies (CFU-E)) in comparison to un-Nucleofected™ CD34^+ HSCs.
Human CD34^+ HSCs cells from mobilized peripheral blood (AllCells) were thawed into StemSpan Serum-Free Expansion Medium (SFEM, StemCell Technologies) containing 100 ng/mL each of the following cytokines: human stem cell factor (SCF), thrombopoietin (TPO), and flt-3 ligand (FL) (all from Peprotech). […]

[3] = system: human mobilized peripheral blood CD34^+ HSCs; assay: Maintenance of HSC phenotype (CD34/CD90 co-staining, flow cytometry); type: cell-based; settings: Cas9 and CCR5 gRNA plasmids after pre-treatment with UM171; 96 hours
Description: Human CD34^+ HSCs cells from mobilized peripheral blood (AllCells) were thawed into StemSpan Serum-Free Expansion Medium (SFEM™, StemCell Technologies) containing 100 ng/mL each of the following cytokines: human stem cell factor (SCF), thrombopoietin (TPO), and flt-3 ligand (FL) (all from Peprotech). Cells were grown for 3 days in a humidified incubator and 5% CO2 20% O2. […] The published use of UM171 involved prolonged exposure of HSCs to the small molecule for ex vivo expansion of HSCs. In the current experiment, HSCs were exposed to UM171 for 2 hours before and 24 hours after delivery of Cas9 and gRNA plasmid DNA. This UM171 treatment protocol was based on pilot studies performed by the inventors that indicated acute pre-treatment with UM171 before lentivirus vector mediated gene delivery improved HSC viability compared to HSCs treated with vehicle (dimethylsulfoxide, DMSO, Sigma) alone. After the 2-hour pretreatment with UM171, 1 million […] HSCs were Nucleofected™ with the Amaxa™ 4D Nucleofector™ device (Lonza), Program EO100 using components of the P3 Primary Cell 4D-Nucleofector Kit™ (Lonza) according to the manufacturer's instructions. […]

[4] = system: human mobilized peripheral blood CD34^+ HSCs; assay: Fold change in CD34+ cell number (trypan blue count) 96 hours after Nucleofection; type: cell-based; settings: Nucleofection with wild type Cas9 and CCR5-U43 gRNA plasmid DNA + vehicle treatment (no UM171)
Description: as §1

Sequence: GCUGCCGCCCAGUGGGACUU (chemistry not given here) [CCR5-U43, S. pyogenes gRNA targeting CCR5; delivered as U6-promoter plasmid with Cas9 plasmid]
- viability (7-AAD^− AnnexinV^-) [1]: > 93%
- Number of colony forming units: E [2]: 18 colony forming units per 1500 CD34^+ HSCs plated
- Number of colony forming units: G [2]: 22 colony forming units per 1500 CD34^+ HSCs plated
- Number of colony forming units: GEMM [2]: 1 colony forming units per 1500 CD34^+ HSCs plated
- Number of colony forming units: GM [2]: 1 colony forming units per 1500 CD34^+ HSCs plated
- Number of colony forming units: M [2]: 6 colony forming units per 1500 CD34^+ HSCs plated
- Number of colony forming units: Total [2]: 28 colony forming units per 1500 CD34^+ HSCs plated
- co-expression of CD34 and CD90 [3]: maintained co-expression of CD34 and CD90
- Fold change in cell number of CD34^+ cells (96 hours vs. time 0 cell number) [4]: 0.6
